In BindingDB's records for doi:10.1016/j.bmcl.2008.06.095 (Tokyo University of Agriculture and Technology, 2008):

Test: Antagonist activity at VDR in human HL60 cells assessed as effect on 1,25-(OH)2-D3-induced cell differentiation by NBT assay

IC50 [µM] | SMILES
> 3 | C=C1/C(=C\C=C2/CCC[C@]3(C)[C@@H]([C@H](C)C[C@@H]4C[C@@](C)(O)C(=O)N4Cc4cc(OC)cc(OC)c4)CC[C@@H]23)C[C@@H](O)C[C@@H]1O [(3R,5R)-1-(3,5-dimethoxybenzyl)-5-((R)-2-((1R,3aS,7aR)-4-(2-((3S,5R)-3,5-dihydroxy-2-methylenecyclohexylidene)ethylidene)-7a-methyl-octahydro-1H-inden-1-yl)propyl)-3-hydroxy-3-methylpyrrolidin-2-one]
> 3 | C=C1/C(=C\C=C2/CCC[C@]3(C)[C@@H]([C@H](C)C[C@H]4C[C@@](C)(O)C(=O)N4Cc4cc(OC)cc(OC)c4)CC[C@@H]23)C[C@@H](O)C[C@@H]1O [(3R,5S)-1-(3,5-dimethoxybenzyl)-5-((R)-2-((1R,3aS,7aR)-4-(2-((3S,5R)-3,5-dihydroxy-2-methylenecyclohexylidene)ethylidene)-7a-methyl-octahydro-1H-inden-1-yl)propyl)-3-hydroxy-3-methylpyrrolidin-2-one]
> 3 | C=C1/C(=C\C=C2/CCC[C@]3(C)[C@@H]([C@H](C)C[C@@H]4C[C@](C)(O)C(=O)N4Cc4cc(OC)cc(OC)c4)CC[C@@H]23)C[C@@H](O)C[C@@H]1O [(3S,5R)-1-(3,5-dimethoxybenzyl)-5-((R)-2-((1R,3aS,7aR)-4-(2-((3S,5R)-3,5-dihydroxy-2-methylenecyclohexylidene)ethylidene)-7a-methyl-octahydro-1H-inden-1-yl)propyl)-3-hydroxy-3-methylpyrrolidin-2-one]
0.09 | C=C1/C(=C\C=C2/CCC[C@]3(C)[C@@H]([C@H](C)C[C@H]4C[C@](C)(O)C(=O)N4Cc4cc(OCC)cc(OCC)c4)CC[C@@H]23)C[C@@H](O)C[C@@H]1O [(3S,5S)-1-(3,5-diethoxybenzyl)-5-((R)-2-((1R,3aS,7aR)-4-(2-((3S,5R)-3,5-dihydroxy-2-methylenecyclohexylidene)ethylidene)-7a-methyl-octahydro-1H-inden-1-yl)propyl)-3-hydroxy-3-methylpyrrolidin-2-one]
0.3 | C=C1/C(=C\C=C2/CCC[C@]3(C)[C@@H]([C@H](C)C[C@H]4C[C@](C)(O)C(=O)N4Cc4cc(OC)cc(OC)c4)CC[C@@H]23)C[C@@H](O)C[C@@H]1O [(3S,5S)-1-(3,5-dimethoxybenzyl)-5-((R)-2-((1R,3aS,7aR)-4-(2-((3S,5R)-3,5-dihydroxy-2-methylenecyclohexylidene)ethylidene)-7a-methyl-octahydro-1H-inden-1-yl)propyl)-3-hydroxy-3-methylpyrrolidin-2-one]
0.86 | C=C1/C(=C\C=C2/CCC[C@]3(C)[C@@H]([C@H](C)C[C@H]4C[C@](C)(O)C(=O)N4CCc4cc(OC)cc(OC)c4)CC[C@@H]23)C[C@@H](O)C[C@@H]1O [(3S,5S)-1-(3,5-dimethoxyphenethyl)-5-((R)-2-((1R,3aS,7aR)-4-(2-((3S,5R)-3,5-dihydroxy-2-methylenecyclohexylidene)ethylidene)-7a-methyl-octahydro-1H-inden-1-yl)propyl)-3-hydroxy-3-methylpyrrolidin-2-one]
0.18 | C=C1/C(=C\C=C2/CCC[C@]3(C)[C@@H]([C@H](C)C[C@H]4C[C@](C)(O)C(=O)N4Cc4cc(OCCC)cc(OCCC)c4)CC[C@@H]23)C[C@@H](O)C[C@@H]1O [(3S,5S)-1-(3,5-dipropoxybenzyl)-5-((R)-2-((1R,3aS,7aR)-4-(2-((3S,5R)-3,5-dihydroxy-2-methylenecyclohexylidene)ethylidene)-7a-methyl-octahydro-1H-inden-1-yl)propyl)-3-hydroxy-3-methylpyrrolidin-2-one]
0.7 | C=C1/C(=C\C=C2/CCC[C@]3(C)[C@@H]([C@H](C)C[C@H]4C[C@](C)(O)C(=O)N4Cc4ccccc4)CC[C@@H]23)C[C@@H](O)C[C@@H]1O [(3S,5S)-1-benzyl-5-((R)-2-((1R,3aS,7aR)-4-(2-((3S,5R)-3,5-dihydroxy-2-methylenecyclohexylidene)ethylidene)-7a-methyl-octahydro-1H-inden-1-yl)propyl)-3-hydroxy-3-methylpyrrolidin-2-one]
0.78 | C=C1/C(=C\C=C2/CCC[C@]3(C)[C@@H]([C@H](C)C[C@H]4C[C@](C)(O)C(=O)N4CCCc4cc(OC)cc(OC)c4)CC[C@@H]23)C[C@@H](O)C[C@@H]1O [(3S,5S)-5-((R)-2-((1R,3aS,7aR)-4-(2-((3S,5R)-3,5-dihydroxy-2-methylenecyclohexylidene)ethylidene)-7a-methyl-octahydro-1H-inden-1-yl)propyl)-1-(3-(3,5-dimethoxyphenyl)propyl)-3-hydroxy-3-methylpyrrolidin-2-one]
2.2 | C=C1/C(=C\C=C2/CCC[C@]3(C)[C@@H]([C@H](C)C[C@H]4C[C@](C)(O)C(=O)N4CCCc4ccccc4)CC[C@@H]23)C[C@@H](O)C[C@@H]1O [(3S,5S)-5-((R)-2-((1R,3aS,7aR)-4-(2-((3S,5R)-3,5-dihydroxy-2-methylenecyclohexylidene)ethylidene)-7a-methyl-octahydro-1H-inden-1-yl)propyl)-3-hydroxy-3-methyl-1-(3-phenylpropyl)pyrrolidin-2-one]
0.39 | C=C1/C(=C\C=C2/CCC[C@]3(C)[C@@H]([C@H](C)C[C@H]4C[C@](C)(O)C(=O)N4CCCCc4ccccc4)CC[C@@H]23)C[C@@H](O)C[C@@H]1O [(3S,5S)-5-((R)-2-((1R,3aS,7aR)-4-(2-((3S,5R)-3,5-dihydroxy-2-methylenecyclohexylidene)ethylidene)-7a-methyl-octahydro-1H-inden-1-yl)propyl)-3-hydroxy-3-methyl-1-(4-phenylbutyl)pyrrolidin-2-one]
0.194 | C=C1/C(=C\C=C2/CCC[C@]3(C)[C@@H]([C@H](C)C[C@H]4C[C@](C)(O)C(=O)N4CCc4ccccc4)CC[C@@H]23)C[C@@H](O)C[C@@H]1O [(3S,5S)-5-((R)-2-((1R,3aS,7aR)-4-(2-((3S,5R)-3,5-dihydroxy-2-methylenecyclohexylidene)ethylidene)-7a-methyl-octahydro-1H-inden-1-yl)propyl)-3-hydroxy-3-methyl-1-phenethylpyrrolidin-2-one]

SMILES | IC50 [µM]
C=C1/C(=C\C=C2/CCC[C@]3(C)[C@@H]([C@H](C)C[C@H]4C[C@](C)(O)C(=O)N4Cc4cc(OCCCC)cc(OCCCC)c4)CC[C@@H]23)C[C@@H](O)C[C@@H]1O [(3S,5S)-1-(3,5-dibutoxybenzyl)-5-((R)-2-((1R,3aS,7aR)-4-(2-((3S,5R)-3,5-dihydroxy-2-methylenecyclohexylidene)ethylidene)-7a-methyl-octahydro-1H-inden-1-yl)propyl)-3-hydroxy-3-methylpyrrolidin-2-one] | 0.54
